Target: T1, human IDO1 (Homo sapiens, UniProt P14902)
T1 construct: expressed in transfected cells
Test: human IDO1/HEK293 cell IDO inhibition assay (kynurenine production)
Type: cell-based
Conditions: HEK293 cells stably expressing human IDO1; 20 hours incubation; absorbance at 490 nm; read-out: Biol. Activity (HEK μM) IDO IC50
Protocol: HEK293 cells were transfected with a pCDNA-based mammalian expression vector harboring human IDO1 cDNA (NM 002164.2) by electroporation. They were cultured in medium (DMEM with 10% FBS) containing 1 mg/ml G418 for two weeks. Clones of HEK293 cells that stably expressed human IDO1 protein were selected and expanded for IDO inhibition assay.
The human IDO1/HEK293 cells were seeded at 10,000 cells per 50 μL per well with RPMI/phenol red free media contains 10% FBS in a 384-well black wall clear bottom tissue culture plate (Matrix Technologies LLC) 100 nL of certain concentration of compound was then added to each well using ECHO liquid handling systems. The cells were incubated for 20 hours in 37° C. incubator with 5% CO2.
The compound treatments were stopped by adding trichloroacetic acid (Sigma-Aldrich) to a final concentration at 0.2%. The cell plate was further incubated at 50° C. for 30 minute. The equal volume supernatant (20 μL) and 0.2% (w/v) Ehrlich reagent (4-dimethylaminobenzaldehyde, Sigma-Aldrich) in glacial acetic acid were mixed in a new clear bottom 384-well plate. This plate was then incubated at room temperature for 30 minute. The absorbance at 490 nm was measured on Envision plate reader.
Compound IC50 values were calculated using the counts of 500 nM of a reference standard treatment as one hundred percent inhibition, and counts of no compound but DMSO treatment as zero percent inhibition.

T1 sequence (P14902 whole entry): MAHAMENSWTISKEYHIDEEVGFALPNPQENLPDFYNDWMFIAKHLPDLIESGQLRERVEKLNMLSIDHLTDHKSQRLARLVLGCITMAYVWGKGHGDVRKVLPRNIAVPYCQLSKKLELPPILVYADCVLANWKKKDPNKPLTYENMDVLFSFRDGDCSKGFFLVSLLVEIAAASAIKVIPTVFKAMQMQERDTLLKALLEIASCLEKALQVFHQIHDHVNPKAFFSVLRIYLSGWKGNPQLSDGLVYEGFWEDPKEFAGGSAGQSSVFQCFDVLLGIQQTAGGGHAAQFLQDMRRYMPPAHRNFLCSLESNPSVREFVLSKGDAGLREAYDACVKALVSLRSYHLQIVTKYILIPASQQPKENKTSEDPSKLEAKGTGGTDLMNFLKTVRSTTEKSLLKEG

Compound | IC50 [µM]
O=C(Cc1ccc(Cl)cc1)N(Cc1ccccc1)[C@H]1CC[C@H](c2ccnc3ccc(F)cc32)CC1 [Example 1, N-benzyl-2-(4-chlorophenyl)-N-(trans-4-(6-fluoroquinolin-4-yl)cyclohexyl)acetamide] | < 10
O=C(c1ccc(Cl)cc1)N(Cc1ccccc1)[C@H]1CC[C@H](c2ccnc3ccc(F)cc32)CC1 [Example 2, N-benzyl-4-chloro-N-(trans-4-(6-fluoroquinolin-4-yl)cyclohexyl)benzamide] | < 1
N#Cc1ccc(C(=O)N(Cc2ccccc2)[C@H]2CC[C@H](c3ccnc4ccc(F)cc43)CC2)cc1 [Example 3, N-benzyl-4-cyano-N-(trans-4-(6-fluoroquinolin-4-yl)cyclohexyl)benzamide] | < 10
O=C(Cc1ccc(Cl)cc1)N(Cc1ccccc1)[C@H]1CC[C@@H](c2ccnc3ccc(F)cc32)CC1 [Example 4, N-benzyl-2-(4-chlorophenyl)-N-(cis-4-(6-fluoroquinolin-4-yl)cyclohexyl)acetamide] | < 10

Reference: patent publication US10323004B2, “Inhibitors of indoleamine 2,3-dioxygenase and methods of their use” (BRISTOL-MYERS SQUIBB COMPANY, priority 2016, dated 2019)
